# Values of other authors as cited in patent publication US20230159538A1, “PYRROLIDINE-PYRAZOLES AS PYRUVATE KINASE ACTIVATORS” (Global Blood Therapeutics, Inc., priority 2020, published 2023).
# Molecular target: PKR (Mus musculus, UniProt P53657)
# Details: mouse model of beta-thalassemia; cited from earlier work
# Chain of PKR (P53657 whole entry): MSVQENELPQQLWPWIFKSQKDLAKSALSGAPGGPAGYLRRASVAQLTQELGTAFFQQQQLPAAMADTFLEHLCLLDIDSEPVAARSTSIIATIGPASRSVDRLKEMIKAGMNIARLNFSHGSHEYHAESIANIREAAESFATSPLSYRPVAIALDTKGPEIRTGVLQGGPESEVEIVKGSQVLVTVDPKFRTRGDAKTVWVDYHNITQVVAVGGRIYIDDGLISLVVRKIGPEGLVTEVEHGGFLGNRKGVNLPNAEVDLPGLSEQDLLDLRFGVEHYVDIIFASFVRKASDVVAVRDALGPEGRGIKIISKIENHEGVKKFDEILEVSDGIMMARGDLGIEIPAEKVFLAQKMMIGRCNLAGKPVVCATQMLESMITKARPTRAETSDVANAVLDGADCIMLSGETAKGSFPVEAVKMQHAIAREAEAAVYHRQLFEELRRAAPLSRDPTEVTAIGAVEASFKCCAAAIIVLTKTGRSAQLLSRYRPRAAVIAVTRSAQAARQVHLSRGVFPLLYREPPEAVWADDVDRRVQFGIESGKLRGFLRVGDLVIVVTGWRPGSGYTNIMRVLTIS
smiles,measurement,value
"O=C(c1ccc(NS(=O)(=O)c2cccc3cccnc23)cc1)N1CCN(CC2CC2)CC1 [AG-348, Mitapivat]",RBC parameters,improved
